Test results: patent US6849405B2, “Translation enhancer element of the human amyloid precursor protein gene” (The Brigham and Women's Hospital, Inc., priority 1997, dated 2005)

Tests used:
[1] = system: APP/CAT mRNA; experiment: RNase protection of APP/CAT mRNA in pSV2(APP)CAT-transfected astrocytoma cells; type: cell-based, human; conditions: 16 hours stimulation
Description: Cells were lysed in 2 ml of a buffer containing 4 M guanidinium thiocyanate, 25 mM NaOac, pH 6.0, 100 mm β-mercaptoethanol. RNA was prepared after shearing the DNA and centrifuging the lysate at 31K, 23° C. for 12 hours through 5 ml of 5.7 M CsCl2 cushion. This procedure ensured that CAT mRNAs and endogenous ferritin mRNAs were purified as a pellet without contamination from plasmid DNA containing transfected CAT gene sequences. The RNA pellet was resuspended in TES buffer (10 mM Tris, pH 7.6, 1 mM EDTA, 0.5% SDS) and was extracted with an equal volume of phenol/chloroform, ethanol-precipitated and resuspended in TES buffer.
Steady-state levels of transfected CAT mRNA from astrocytoma and neuroblastoma pSV2(APP)(CAT) transfectants was characterized by RNase protection. A 261 nucleotide ^32P-labeled cRNA was transcribed from a HindIII digested DNA template isolated from the CAT gene in the pSV2CAT subclone (Rogers, et al., Nucl. Acid Res. 22: 2678 (1994); Campbell, et al., Biochem. Biophys. Res. Commun. 160: 453 (1989); Fahmy, et al., Biochem. J. 296; 175 (1993)). Labeled cRNA, antisense to the CAT gene, was hybridized to 20 μg of mRNA purified from pSV2(APP)(CAT) transfectants of astrocytoma cells. […] Kinase labeled HaeIII-digested X-174 DNA fragments were used as DNA markers for autoradiography and quantitation of CAT mRNA levels.

[2] = system: ACT-mRNA; experiment: Northern blot of ACT-mRNA, astrocytoma cells; type: cell-based, human; conditions: Northern blot, 16 hours stimulation
Description: Total RNA (10 μg) was extracted from primary astrocytes and astrocytoma cells with a RNA-STAT kit (Tel-Test). RNA samples were denatured in 50% formamide/2.2 M formaldehyde/20 mM MOPS/5 mM sodium acetate/0.5 mM EDTA, pH 7.4, at 60° C. for 10 minutes, electrophoresed on 1.0% agarose-formaldehyde gels, blotted onto Hybond-N filters and immobilized by UV crosslinking and heating filters to 80° C. Filters were prehybridized for 3 hours and hybridized overnight in a solution consisting of 50% formamide, […] denatured salmon sperm DNA, 5×SSC, 0.1% sodium dodecyl sulfate and 5×Denhardt's solution. Following hybridization, filters were washed twice for a total of 1 hour in 2×SSC/0.2% sodium dodecyl sulfate at room temperature and twice each for a total of 1 hour in 0.5×SSC/0.1% sodium dodecyl sulfate at 55° C. Equal loading was verified by ethidium bromide staining, non-specific hybridization of the ACT probe to the 28S rRNA, and by standardized hybridization to the GAPDH cDNA probe as an internal standard. The APP cDNA probe corresponded to the unique internal 1 kb fragment gel purified from the 3 kb APP cDNA (Kang et al. Nature 325: 733 (1987)), the ACT cRNA probe to a PstI/SacI fragment (536-943) in the human ACT cDNA (Chandra, et al., Biochemistry 22: 5055 (1983)) and the GAPDH probe to the human GAPDH gene (Tokunaga, et al., Cancer Res. 47: 5616 (1987)).

Substance	decrease of steady-state level of CAT mRNA ([1]; pSV2(APP)CAT transfectants, two separate transfections)	ACT mRNA transcriptional change [2]	increase of steady-state APP/CAT mRNA level relative to unstimulated cells ([1]; pSV2(APP)CAT transfected astrocytoma cells)
interleukin-1α [IL-1α]	50%	large transcriptional increase	
interleukin-1β [IL-1β]		large transcriptional increase	30%
